Measurements taken from US20260216347A1, “Substituted Imidazo-Based Compounds as Ligand Directed Degraders of IRAK3” (Celgene Corporation, priority 2022, published 2026).

Each compound was assayed against T1, IRAK3 (Homo sapiens, UniProt Q9Y616) (assay: IRAK endogenous HTRF degradation assay (Total-IRAK3 HTRF kit)). Conditions: overnight incubation, lowest percentage of protein remaining.
T1 construct: IRAK Endogenous HTRF Degradation Assay; endogenous in cells
T1 sequence (Q9Y616 1-596): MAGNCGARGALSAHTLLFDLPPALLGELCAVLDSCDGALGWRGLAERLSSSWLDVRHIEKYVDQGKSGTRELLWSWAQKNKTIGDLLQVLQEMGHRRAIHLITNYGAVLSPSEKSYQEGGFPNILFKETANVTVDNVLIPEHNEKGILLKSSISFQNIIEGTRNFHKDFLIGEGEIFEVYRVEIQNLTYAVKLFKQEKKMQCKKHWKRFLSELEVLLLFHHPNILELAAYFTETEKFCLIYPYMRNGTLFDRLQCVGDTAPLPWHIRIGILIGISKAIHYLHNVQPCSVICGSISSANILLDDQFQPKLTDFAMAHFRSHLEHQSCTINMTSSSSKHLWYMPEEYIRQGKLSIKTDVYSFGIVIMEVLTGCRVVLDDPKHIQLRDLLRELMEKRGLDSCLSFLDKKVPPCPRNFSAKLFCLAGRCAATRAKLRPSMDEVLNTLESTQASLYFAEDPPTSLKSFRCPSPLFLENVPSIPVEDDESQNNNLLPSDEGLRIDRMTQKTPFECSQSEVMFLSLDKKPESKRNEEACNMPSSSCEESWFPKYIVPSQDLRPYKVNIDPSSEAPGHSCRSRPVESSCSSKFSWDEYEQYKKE
Type: cell-based
Method in brief: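 Cells (~50 k) incubated overnight with 3-fold serial dilutions of compound, then lysed; total IRAK3 read by HTRF (665/615 nm ratio ×10,000), normalized to DMSO as 100%. EC50 from four-parameter logistic fit; Dmax = 100 − Ymin (lowest % protein remaining); DC50 = concentration giving 50% degradation.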

Compound | IRAK3 HTRF degradation Ymin
Cc1cc(-c2cnc(Nc3cnn(C4CCN(CCN5CCN(c6ccc(C7CCC(=O)NC7=O)cc6)CC5)CC4)c3)c3nccn23)ccc1F (stereo not drawn) [Compound 33, 3-(4-(4-(2-(4-(4-((5-(4-fluoro-3-methylphenyl)imdazo [1,2-a]pyrazin-8-yl)amino)-1H-pyrazol-1-yl)piperidin-1-yl)ethyl)piperazin-1-yl)phenyl) piperidine-2,6-dione] | 13%
Cc1cc(-c2cnc(Nc3cnn(C4CCN(CCN5CCN(c6ccc(C7CCC(=O)NC7=O)cc6)C[C@@H]5C)CC4)c3)c3nccn23)c(F)cc1F (stereo partly drawn) [Compound 7, 3-(4-((S)-4-(2-(4-(4-((5-(2,4-difluoro-5-methylphenyl)imdazo [1,2-a]pyrazin-8-yl)amino)-1H-pyrazol-1-yl)piperidin-1-yl)ethyl)-3-methylpiperazin-1-yl)phenyl) piperidine-2,6-dione] | 12%
Cc1cc(-c2cnc(Nc3cnn(C4CCN(CCN5CCN(c6ccc(C7CCC(=O)NC7=O)cc6)CC5)CC4)c3)c3nccn23)c(F)cc1F (stereo not drawn) [Compound 8, 3-(4-(4-(2-(4-(4-((5-(2,4-difluoro-5-methylphenyl)imidazo[1,2-a]pyrazin-8-yl)amino)-1H-pyrazol-1-yl)piperidin-1-yl)ethyl)piperazin-1-yl)phenyl)piperidine-2,6-dione] | 9%
Cc1cc(-c2cnc(Nc3cnn([C@H]4CCN(CCN5CCN(c6ccc(C7CCC(=O)NC7=O)cc6)CC5)C[C@@H]4F)c3)c3nccn23)c(F)cc1F (stereo partly drawn) [Compound 72, 3-(4-(4-(2-((3S,4S)-4-(4-((5-(2,4-difluoro-5-methylphenyl)imdazo [1,2-a]pyrazin-8-yl)amino)-1H-pyrazol-1-yl)-3-fluoropiperidin-1-yl)ethyl)piperazin-1-yl)phenyl) piperidine-2,6-dione] | 8.3%
Cc1cc(-c2cnc(Nc3cnn(C4CCN(CCN5CCN(c6ccc([C@@]7(C)CCC(=O)NC7=O)cc6)CC5)CC4)c3)c3nccn23)c(F)cc1F [Compound 77, (R)-3-(4-(4-(2-(4-(4-((5-(2,4-difluoro-5-methylphenyl)imdazo [1,2-a]pyrazin-8-yl)amino)-1H-pyrazol-1-yl)piperidin-1-yl)ethyl)piperazin-1-yl)phenyl)-3-methylpiperidine-2,6-dione] | 8.3%
O=C1CCC(c2ccc(N3CCN(CCN4CCC(n5cc(Nc6ncc(-c7ccccc7F)n7ccnc67)cn5)CC4)CC3)cc2)C(=O)N1 (stereo not drawn) [Compound 75, 3-(4-(4-(2-(4-(4-((5-(2-fluorophenyl)imidazo [1,2-a]pyrazin-8-yl)amino)-1H-pyrazol-1-yl)piperidin-1-yl)ethyl)piperazin-1-yl)phenyl) piperidine-2,6-dione] | 9.8%

Next, values leading:

IRAK3 HTRF degradation Ymin | Compound
45% | Cc1cccc(-c2cnc(Nc3cnn(C4CCN(CC(=O)N5CCN(c6ccc7c(c6)C(=O)N(C6CCC(=O)NC6=O)C7)CC5)CC4)c3)c3nccn23)c1 (stereo not drawn) [Compound 16, 3-(1-oxo-6-(4-(2-(4-(4-((5-(m-tolyl)imidazo[1,2-a]pyrazin-8-yl)amino)-1H-pyrazol-1-yl)piperidin-1-yl)acetyl)piperazin-1-yl)isoindolin-2-yl)piperidine-2,6-dione]
15% | Cc1cc(-c2cnc(Nc3cnn(C4CCN(CC(=O)N5CCN(c6ccc(C7CCC(=O)NC7=O)cc6)CC5)CC4)c3)c3nccn23)c(F)cc1F (stereo not drawn) [Compound 17, 3-(4-(4-(2-(4-(4-((5-(2,4-difluoro-5-methylphenyl)imidazo[1,2-a]pyrazin-8-yl)amino)-1H-pyrazol-1-yl)piperidin-1-yl)acetyl)piperazin-1-yl)phenyl)piperidine-2,6-dione]
23% | Cc1cc(-c2cnc(Nc3cnn(C4CCN(CC(=O)N5CCN(c6ccc7c(c6)C(=O)N(C6CCC(=O)NC6=O)C7=O)CC5)CC4)c3)c3nccn23)c(F)cc1F (stereo not drawn) [Compound 6, 5-(4-(2-(4-(4-((5-(2,4-difluoro-5-methylphenyl)imidazo[1,2-a]pyrazin-8-yl)amino)-1H-pyrazol-1-yl)piperidin-1-yl)acetyl)piperazin-1-yl)-2-(2,6-dioxopiperidin-3-yl)isoindoline-1,3-dione]
